Assay results taken from EP0476658B1, “1-Phenyl-3-phenyl-2-propyne-1-ones” (MERRELL DOW PHARMACEUTICALS INC., priority 1990, dated 1992).

What was measured:
Rat PMNL [1] = assay: Measurement of intracellular calcium (Fura-2) in fMLP-stimulated PMNL; format: cell-based; details: preincubation of PMNL with compound 15 minutes at 37°C, fMLP stimulus; second wave = influx of extracellular calcium
Protocol: (§1) Rat PMNL were obtained from exudates resulting from peritoneal injection of 6 mL of 8% sodium caseinate. Eighteen hours after injection rats were killed by carbon dioxide inhalation and the peritoneal cavity lavaged with Hank's balanced salt solution (HBSS). After concentration of the PMNL by centrifugation, contaminating erythrocytes were removed by hypotonic lysis. The PMNL were then washed twice by centrifugation (400 x g for 10 minutes) and resuspended in HBSS. Cell viability was greater than 90% by Trypan Blue exclusion and greater than 90% of the cells were PMNL by Wright-Giemsa stain.
Intracellular calcium levels were obtained using Fura-2 as fluorescent indicator (Grynkiewicz et al., 1985). Fura-2 was loaded into PMNL as the acetoxymethyl ester (Fura-2/AM) using the method of Korchak et al., (1988). Specifically, 1 X 10⁸ PMNL/mL were incubated in HBSS with 10 µM Fura-2/AM for 10 minutes at 37°C. The cells suspension was then diluted ten fold with HBSS and further incubated for another 20 minutes. The cells were then centrifuged (400 x g for 8 minutes at 25°C) and the PMNL (1 x 10⁷ cells/mL) resuspended in HBSS containing 1% bovine serum albumin. Cells were stored at room temperature and used within 3 hours.
Intracellular calcium level determinations were made using a dual wavelength spectrofluorometer (Photon Technology International, New Brunswick, NJ). […]

Rat PMNL [2] = assay: Myeloperoxidase (MPO) release from stimulated PMNL; format: cell-based; details: fMLP (with cytochalasin B), opsonized zymosan or ionomycin stimulation
Protocol: as §1
MPO release was determined using the MPO catalyzed oxidation of O-dianisidine. The experiments were carried out in 96-well microtiter plates (Webster and Henson, 1978). In each well, 50 microliter (µl) aliquots of a PMNL suspension (2 x 10⁷ cells/mL in HBSS) were incubated with 50 µl of HBSS containing vehicle (0.3% DMSO) or inhibitor for 30 minutes at 37°C. The final DMSO concentration never exceeded 0.3% and was constant throughout each experiment. […] The stimuli were added in 50 µl HBSS which also contained the compounds or vehicle, as appropriate, to avoid changing the inhibitor concentration. Cell activation was terminated by centrifugation of the plates at 600 x g for 5 minutes at 22°C. […] Absorbances of the samples were measured at 450 nm. […]

[3] = tested on: Mustard Oil-Induced Mouse Ear Edema; assay: Mustard oil-induced mouse ear edema; format: in vivo; details: 30 minutes prior to mustard oil, ear weight 30 minutes after, male CD-1 mice
Protocol: Charles River male CD-1 mice weighing 30-60 grams were divided into randomized groups. They were dosed i.p. for 30 minutes prior or orally 1 hour prior to application of 20 ul of mustard oil (10% isothiocyanate in acetone) to the right ear. After 30 minutes the mice were sacrificed and an 8 millimeter diameter circular punch biopsy of each ear was obtained and weighed. The difference between the left (control) and right (treated) ear weights were expressed as percent increase.

[4] = tested on: Carrageenin-Induced Rat Paw Edema; assay: Carrageenin-induced rat paw edema; format: in vivo; details: 75 mg/Kg i.p. one hour prior to carrageenin; paw volume three hours after; male Sprague Dawley rats
Protocol: Charles River male Sprague Dawley rats weighing 90 to 100 grams were used. Inflammation of the left hind paw was induced by a 1% carrageenin solution (0.05 cc), injected into the plantar surface of the paw. The contralateral paw was injected with an equal volume of saline. Drugs were administered 75 mg/Kg i.p. (1 cc/100 grams) one hour prior to paw injection. Three hours following the carrageenin injection the difference in volume of the control and inflamed paw was measured. Each paw was immersed in a well of mercury and the volume of mercury displaced was recorded. Paws were uniformly dipped into the mercury up to the beginning of the hairline. A venous pressure transducer, coupled to an chart recorder, was employed to measure the small volumes of mercury displaced. Each group measurement consists of the average of four rats, each with three separate measurements.

Rat PMNL [5] = assay: Superoxide anion (SOA) production by stimulated PMNL; format: cell-based
Protocol: as §1
Aliquots (50 µl) of a rat PMNL suspension (2 x 10⁷ cells/mL in HBSS) were incubated with 50 µl of HBSS containing vehicle (0.3% DMSO) or compound for 30 minutes at 37°C as above. One hundred microliters of buffer containing 5.98 mg/mL of cytochrome C (Sigma Type III) and 0.1 mg/mL catalase, plus the compounds where appropriate, were then added to each sample. A blank for spectrophotometric measurement, containing unstimulated cells in the presence of cytochrome C, catalase and SOD, was also prepared. […] Aliquots (200 µl) of supernatant were then transferred to a second, flat-well microtiter plate and measured spectrophotometrically at 550 nm. […]

In the case of `O=C(C#Cc1ccc(OCc2ccccc2)cc1)c1ccccc1` [MDL 101,097, 1-phenyl-3-[(4-benzyloxy)phenyl]-2-propyne-1-one], the “effect on fMLP-induced intracellular calcium changes” value (Rat PMNL [1]) is reported as “selective concentration-dependent suppression of the second wave of intracellular calcium changes”.

For `CN(C)c1ccc(C(=O)C#Cc2ccncc2)cc1` [MDL 102,175, 1-(4-dimethylaminophenyl)-3-(4-pyridinyl)-2-propynel-1-one], the “inhibition of release of myeloperoxidase” value (Rat PMNL [2]) was “dose dependent inhibition”.

In the case of `COc1ccc(COc2cccc(C#CC(=O)c3ccccc3)c2)cc1` [MDL 100,225, 1-phenyl-3-[3-(4-methoxybenzyloxy)phenyl]-2-propyne-1-one], the “%Inhibition” value ([3]; 10 mg/Kg i.p.) is reported as 25.3 ± 17.8%, the “%Inhibition” value ([3]; 30 mg/Kg i.p.) is reported as 33.4 ± 14.6% and the “%Inhibition” value ([3]; 100 mg/Kg i.p.) is reported as 60.9 ± 11.7%. For the same compound, the “%Inhibition” value [4] was 24.3% ± 10.3%.

With `O=C(C#Cc1ccncc1)c1ccccc1` [MDL 101,098, 1-phenyl-3-(4-pyridinyl)-2-propyne-1-one] the “inhibition of superoxide anion production” value (Rat PMNL [5]; PMA and OZ stimulation) was “inhibited in a dose dependent fashion” and the inhibition at 1 µM (Rat PMNL [5]; Rattus norvegicus, PMNL, inhibition of superoxide anion production, PMA, CONC 1 uM) was -20.7%.
